system: isolated rat aortae; experiment: Vasorelaxing effect on the isolated rat aortae (Referential Example 1)-1); conditions: inhibition of contraction induced by 40 mM KCl
Protocol: (§1) The compounds of the present invention were tested for their physiological activities by measuring the tension of isolated rat aortae isometrically.
Thoracic aortae obtained from male Wistar rats (weighing 250-350 g) were cut into ring segments about 3 mm long. The ring preparation was placed in an organ bath filled with 10 ml of Krebs-Ringer solution that was maintained at 37°C and gassed with 95% O₂ - 5% CO₂.
The preparation in the organ bath was allowed to equilibrate under resting tension of 1 g. After equilibration period, the solution in the organ bath was replaced with an isotonic solution containing 40 mM KCl to contract the preparation.
(§2) After the contraction induced by KCl had reached plateau, the concentration-response relationship for the test compound was determined by means of cumulative addition.
(§3) The relaxation response of the test compounds was expressed as the percent inhibition of the contraction induced by KCl, and the IC₅₀ value, which is a concentration required for inhibiting the contraction induced by KCl to an extent of 50%, was calculated by the Probit method from the concentration-response curve.

Row | SMILES | IC50 [µM]
1 | Cc1ccc(CN=C(NC#N)c2ccccn2)cc1 [(6), N-cyano-N'-(4-methylbenzyl)-2-pyridinecarboximidamide] | 51
2 | N#CNC(=NCc1cccs1)c1ccccn1 [(12), N-cyano-N'-(2-thienylmethyl)-2-pyridinecarboximidamide] | 24
3 | N#CNC(=NCCc1ccc(Cl)cc1)c1ccccn1 [(10), N-cyano-N'-[2-(4-chlorophenyl)ethyl]-2-pyridinecarboximidamide] | 40
4 | N#CNC(=NCC(O[N+](=O)[O-])c1ccc([N+](=O)[O-])cc1)c1ccncc1 (stereo not shown) [(50), N-cyano-N'-[2-(4-nitrophenyl)-2-nitroxyethyl]-4-pyridinecarboximidamide] | 14
5 | Cc1ccc(CCN=C(NC#N)c2ccccn2)cc1 [(9), N-cyano-N'-[2-(4-methylphenyl)ethyl]-2-pyridinecarboximidamide] | 72
6 | CC(N=C(NC#N)c1ccncc1)C(O[N+](=O)[O-])c1ccc([N+](=O)[O-])cc1 (stereo not shown) [(51), N-cyano-N'-[1-methyl-2-(4-nitrophenyl)-2-nitroxyethyl]-4-pyridinecarboximidamide] | 13
7 | N#CNC(=NCc1ccc(Cl)cc1)c1cccnc1 [(22), N-cyano-N'-(4-chlorobenzyl)-3-pyridinecarboximidamide] | 22
8 | COc1ccc(N=C(NC#N)c2ccccn2)cc1 [(5), N-cyano-N'-(4-methoxyphenyl)-2-pyridinecarboximidamide] | 65
9 | N#CNC(=NCc1ccc(C(F)(F)F)cc1)c1cccnc1 [(21), N-cyano-N'-[4-(trifluoromethyl)benzyl]-3-pyridinecarboximidamide] | 70
10 | N#CNC(=Nc1ccccc1)c1ccccn1 [(4), N-cyano-N'-phenyl-2-pyridinecarboximidamide] | 31
11 | CC(N=C(NC#N)c1ccccn1)C(O)c1ccccc1 (stereo not shown) [(11), N-cyano-N'-(2-hydroxy-1-methyl-2-phenylethyl)-2-pyridinecarboximidamide] | 12
12 | N#CNC(=NCC(O[N+](=O)[O-])c1ccc([N+](=O)[O-])cc1)c1cccnc1 (stereo not shown) [(32), N-cyano-N'-[2-(4-nitrophenyl)-2-nitroxyethyl]-3-pyridinecarboximidamide] | 78
13 | Cc1ccc(CN=C(NC#N)c2cccnc2)cc1 [(18), N-cyano-N'-(4-methylbenzyl)-3-pyridinecarboximidamide] | 22
14 | N#CN=C(N)c1cccnc1 [N-cyano-3-pyridine-carboxyimidamide, reference compound] | 40000
15 | Cc1ccc(N=C(NC#N)c2cccnc2)cc1 [(16), N-cyano-N'-(4-methylphenyl)-3-pyridinecarboximidamide] | 17
16 | N#CNC(=NCCCO[N+](=O)[O-])c1cccnc1 [(14), N-cyano-N'-(3-nitroxypropyl)-3-pyridinecarboximidamide] | 20
17 | COc1ccc(CN=C(NC#N)c2cccnc2)cc1 [(19), N-cyano-N'-(4-methoxybenzyl)-3-pyridinecarboximidamide] | 37
18 | CC(N=C(NC#N)c1ccccn1)C(C)(C)C (stereo not shown) [(3), N-cyano-N'-(1,2,2-trimethylpropyl)-2-pyridinecarboximidamide] | 49
19 | CC(C)(C)CN=C(NC#N)c1ccccn1 [(2), N-cyano-N'-(2,2-dimethylpropyl)-2-pyridinecarboximidamide] | 60
20 | N#CNC(=NCc1ccc(Cl)cc1)c1ccccn1 [(7), N-cyano-N'-(4-chlorobenzyl)-2-pyridinecarboximidamide] | 23
21 | N#CNC(=NCc1ccc(C(F)(F)F)cc1)c1ccccn1 [(8), N-cyano-N'-[4-(trifluoromethyl)benzyl]-2-pyridinecarboximidamide] | 57
22 | CC(C)(C)CCN=C(NC#N)c1cccnc1 [(15), N-cyano-N'-(3,3-dimethylbutyl)-3-pyridinecarboximidamide] | 95

Continued, values first:

Row | IC50 [µM] | SMILES
23 | 180 | N#CN=C(N)c1ccncc1 [N-cyano-4-pyridine-carboxyimidamide, reference compound]
24 | 24 | N#CNC(=NCc1cc(C(F)(F)F)cc(C(F)(F)F)c1)c1cccnc1 [(25), N-cyano-N'-[3,5-bis(trifluoromethyl)benzyl]-3-pyridinecarboximidamide]
25 | 70 | COc1ccccc1CCN=C(NC#N)c1cccnc1 [(28), N-cyano-N'-[2-(2-methoxyphenyl)ethyl]-3-pyridinecarboximidamide]
26 | 98 | N#CNC(=NCc1ccc([N+](=O)[O-])cc1)c1cccnc1 [(23), N-cyano-N'-(4-nitrobenzyl)-3-pyridinecarboximidamide]
27 | 38 | N#CNC(=NC(c1ccccc1)c1ccccc1)c1cccnc1 [(34), N-cyano-N'-diphenylmethyl-3-pyridinecarboximidamide]
28 | 16 | N#CNC(=NCC(c1ccccc1)c1ccccc1)c1cccnc1 [(36), N-cyano-N'-(2,2-diphenylethyl)-3-pyridinecarboximidamide]
29 | 19 | N#CNC(=NCc1ccc(Cl)c(Cl)c1)c1ccncc1 [(44), N-cyano-N'-(3,4-dichlorobenzyl)-4-pyridinecarboximidamide]
30 | 18 | N#CNC(=NC(Cc1ccccc1)c1ccccc1)c1cccnc1 (stereo not shown) [(35), N-cyano-N'-(1,2-diphenylethyl)-3-pyridinecarboximidamide]
31 | 73 | COc1ccccc1CCN=C(NC#N)c1ccncc1 [(48), N-cyano-N'-[2-(2-methoxyphenyl)ethyl]-4-pyridinecarboximidamide]
32 | 28 | N#CNC(=NCCC(c1ccccc1)c1ccccc1)c1cccnc1 [(37), N-cyano-N'-(3,3-diphenylpropyl)-3-pyridinecarboximidamide]
33 | 11 | N#CN=C(NCCO[N+](=O)[O-])c1ccc(Cl)nc1 [(52), N-cyano-N'-(2-nitroxyethyl)-3-(6-chloropyridine)carboximidamide]
34 | 16 | N#CNC(=NCCc1ccc(NCc2ccccc2)cc1)c1cccnc1 [(31), N-cyano-N'-[2-(4-benzylaminophenyl)ethyl]-3-pyridinecarboximidamide]
35 | 48 | N#CNC(=NCCc1ccc(OCc2ccccc2)c(OCc2ccccc2)c1)c1cccnc1 [(39), N-cyano-N'-[2-(3,4-dibenzyloxyphenyl)ethyl]-3-pyridinecarboximidamide]
36 | 21 | N#CNC(=NCc1ccc(Cl)c(Cl)c1)c1cccnc1 [(24), N-cyano-N'-(3,4-dichlorobenzyl)-3-pyridinecarboximidamide]
37 | 77 | N#CN=C(NCCc1ccccc1)c1ccc(Cl)nc1 [(53), N-cyano-N'-(2-phenylethyl)-3-(6-chloropyridine)carboximidamide]
38 | 40 | N#CNC(=NCCc1ccc(Cl)cc1)c1ccncc1 [(47), N-cyano-N'-[2-(4-chlorophenyl)ethyl]-4-pyridinecarboximidamide]
39 | 49 | CSc1ccc(CN=C(NC#N)c2ccncc2)cc1 [(45), N-cyano-N'-(4-methylthiobenzyl)-4-pyridinecarboximidamide]
40 | 23 | N#CNC(=NCc1cccc(OCc2ccccc2)c1)c1cccnc1 [(26), N-cyano-N'-(3-benzyloxybenzyl)-3-pyridinecarboximidamide]
41 | 43 | N#CNC(=NCCc1ccc(Cl)cc1)c1cccnc1 [(30), N-cyano-N'-[2-(4-chlorophenyl)ethyl]-3-pyridinecarboximidamide]
42 | 20 | N#CNC(=NCCCO[N+](=O)[O-])c1ccncc1 [(42), N-cyano-N'-(3-nitroxypropyl)-4-pyridinecarboximidamide]
43 | 78 | CN(C)c1ccc(CN=C(NC#N)c2cccnc2)cc1 [Compound (20), N-cyano-N'-(4-dimethylaminobenzyl)-3-pyridinecarboximidamide]
44 | 40 | COc1ccc(NC(=NC#N)c2cccnc2)c(OC)n1 [(40), N-cyano-N'-3-(2,6-dimethoxypyridine)-3-pyridinecarboximidamide]
45 | 30 | N#CNC(=NCc1cccc(OCc2ccccc2)c1)c1ccncc1 [(46), N-cyano-N'-(3-benzyloxybenzyl)-4-pyridinecarboximidamide]
46 | 52 | N#CNC(=Nc1ccccc1)c1ccncc1 [(43), N-cyano-N'-phenyl-4-pyridinecarboximidamide]
47 | 62 | N#CNC(=NCCSc1ccccc1)c1ccncc1 [(49), N-cyano-N'-(2-phenylthioethyl)-4-pyridinecarboximidamide]
48 | 95 | N#CNC(=NCCCc1ccccc1)c1cccnc1 [(33), N-cyano-N'-(3-phenylpropyl)-3-pyridinecarboximidamide]
49 | 68 | N#CNC(=NCC(OCc1ccccc1)c1ccccc1)c1cccnc1 (stereo not shown) [Compound (38), N-cyano-N'-(2-benzyloxy-2-phenylethyl)-3-pyridinecarboximidamide]

system: isolated rat aortae; experiment: Vasorelaxing effect on the isolated rat aortae (Referential Example 2)-1); conditions: inhibition of contraction induced by 40 mM KCl, read-out: IC₅₀ Value
Protocol: as §1
Thoracic aortae obtained from male Wistar rats (weighing 250-350 g) were cut into ring segments about 3 mm long. The ring preparation was placed in an organ bath filled with 10 ml of Krebs-Ringer solution which was maintained at 37°C and gassed with 95% O₂ - 5% CO₂.
The preparation in the organ bath was allowed to equilibrate under resting tension 1 g. After equilibration period, the solution in the organ bath was replaced with an isotonic solution containing 40 mM KCl to contract the preparation.
as §2, §3

Row | IC50 [µM] | SMILES
50 | 24 | N#CNC(=NCCO[N+](=O)[O-])c1cnc2ccccc2c1 [Compound (59), N-cyano-N′-(2-nitroxyethyl)-3-quinolinecarboximidamide]
51 | 18 | N#CNC(=NCCc1ccccc1)c1ccco1 [(63), N-cyano-N′-(2-phenylethyl)-2-furancarboximidamide]
52 | 92 | N#CNC(=NCCc1ccccc1)c1ccsc1 [(68), N-cyano-N′-(2-phenylethyl)-3-thiophenecarboximidamide]
